Results on twelve compounds are retold here after patent publication US7709498B2, “Quinoline derivatives as antibacterial agents” (Janssen Pharmaceutica N.V., priority 2005, dated 2010).

Assay type in all cases: cell-based
Experiment [1] has as its system Listeria monocytogenes (ATCC49594). Briefly: Microtitre plate assay, IC90 determination, LMO 49594. The following applies: 90% inhibitory concentration for bacterial growth, 37° C., resazurin fluorescence; for IC90: Listeria monocytogenes, ATCC49594, 24 h, read-out: IC90 (μg/ml) LMO 49594. The method, then:
(§1) The bacteria used in this study were grown overnight in flasks containing 100 ml Mueller-Hinton Broth (Becton Dickinson—cat. no. 275730) in sterile de-ionized water, with shaking, at 37° C. Stocks (0.5 ml/tube) were stored at −70° C. until use. Bacteria titrations were performed in microtiter plates to detect the TCID50, in which the TCID50 represents the dilution that gives rise to bacterial growth in 50% of inoculated cultures.
(§2) In general, an inoculum level of approximately 100 TCID50 was used for susceptibility testing.
(§3) Flat-bottom, sterile 96-well plastic microtiter plates were filled with 180 μl of sterile deionized water, supplemented with 0.25% BSA. Subsequently, stock solutions (7.8× final test concentration) of compounds were added in 45 μl volumes in column 2. Serial five-fold dilutions (45 μl in 180 μl) were made directly in the microtiter plates from column 2 to reach column 11. Untreated control samples with (column 1) and without (column 12) inoculum were included in each microtiter plate. Depending on the bacteria type, approximately 10 to 60 CFU per well of bacteria inoculum (100 TCID50), in a volume of 100 μl in 2.8× Mueller-Hinton broth medium, was added to the rows A to H, except column 12. The same volume of broth medium without inoculum was added to column 12 in row A to H. The cultures were incubated at 37° C. for 24 hours under a normal atmosphere (incubator with open air valve and continuous ventilation). At the end of incubation, one day after inoculation, the bacterial growth was quantitated fluorometrically. Therefore resazurin (0.6 mg/ml) was added in a volume of 20 μl to all wells 3 hours after inoculation, and the plates were re-incubated overnight. A change in colour from blue to pink indicated the growth of bacteria. The fluorescence was read in a computer-controlled fluorometer (Cytofluor Biosearch) at an excitation wavelength of 530 nm and an emission wavelength of 590 nm. The % growth inhibition achieved by the compounds was calculated according to standard methods. The IC90 (expressed in μg/ml) was defined as the 90% inhibitory concentration for bacterial growth.
(§4) BSU 3639 means Bacillus subtilis (ATCC43639); ECO 25922 means Escherichia coli (ATCC25922); EFA 14506 means Enterococcus faecalis (ATCC14506); EFA 29212 means Enterococcus faecalis (ATCC29212); LMO 49594 means Listeria monocytogenes (ATCC49594); PAE 27853 means Pseudomonas aeruginosa (ATCC27853); SMU 33402 means Streptococcus mutans (ATCC33402); SPN 6305 means Streptococcus pneumoniae (ATCC6305); SPY 8668 means Streptococcus pyogens (ATCC8668); STA 43300 means Staphylococcus aureus (ATCC43300); STA 25923 means Staphylococcus aureus (ATCC25923); STA 29213 means Staphylococcus aureus (ATCC29213); STA RMETH means methicilline resistant Staphylococcus aureus (MRSA) (a clinical isolate from the University of Antwerp). ATCC means American type tissue culture.
(The colour change of resazurin is a common sign of viable cells or microbes.)

In experiment [2] the test system is Enterococcus faecalis (ATCC29212). The experiment is described as follows: Microtitre plate assay, IC90 determination, EFA 29212. The following applies: 90% inhibitory concentration for bacterial growth, 37° C., resazurin fluorescence; for IC90: Enterococcus faecalis, ATCC29212, 24 h, read-out: IC90 (μg/ml) EFA 29212. Here is the method:
as §1, §2, §3, §4

In experiment [3] the test system is Streptococcus pyogens (ATCC8668). Briefly: Microtitre plate assay, IC90 determination, SPY 8668. The following applies: 90% inhibitory concentration for bacterial growth, 37° C., resazurin fluorescence; for IC90: Streptococcus, ATCC8668, 24 h, read-out: IC90 (μg/ml) SPY 8668; for IC90 (μg/ml) SPY 8668: 24 hours. The method, then: as §1, §2, §3, §4
Experiment [4] relates to Streptococcus mutans (ATCC33402). The experiment is described as follows: Microtitre plate assay, IC90 determination, SMU 33402. The following applies: 90% inhibitory concentration for bacterial growth, 37° C., resazurin fluorescence; for IC90: Streptococcus mutans, ATCC33402, 24 h, read-out: IC90 (μg/ml) SMU 33402; for IC90 (μg/ml) SMU 33402: 24 hours. The method, then:
as §1, §2, §3, §4

The subject of experiment [5] is Streptococcus pneumoniae (ATCC6305). Briefly: Microtitre plate assay, IC90 determination, SPN 6305. The following applies: 90% inhibitory concentration for bacterial growth, 37° C., resazurin fluorescence; for IC90 (μg/ml) SPN 6305: 24 hours; for IC90: Streptococcus pneumoniae, ATCC6305, 24 h, read-out: IC90 (μg/ml) SPN 6305. The method, then: as §1, §2, §3, §4
For experiment [6], the system named is Staphylococcus aureus (ATCC43300). Briefly: Microtitre plate assay, IC90 determination, STA 43300. The following applies: Staphylococcus aureus, ATCC43300, 24 h, 90% inhibitory concentration for bacterial growth, 37° C., resazurin fluorescence, read-out: IC90 (μg/ml) STA 43300. Here is the method:
as §1, §2, §3, §4

Experiment [7] relates to Bacillus subtilis (ATCC43639). Briefly: Microtitre plate assay, IC90 determination, BSU 43639. To be noted: 90% inhibitory concentration for bacterial growth, 37° C., resazurin fluorescence; for IC90: Bacillus subtilis, ATCC43639, 24 h, read-out: IC90 (μg/ml) BSU 43639. The method, then: as §1, §2, §3, §4
Experiment [8] has as its system Pseudomonas aeruginosa (ATCC27853). Briefly: Microtitre plate assay, IC90 determination, PAE 27853. To be noted: Pseudomonas aeruginosa, ATCC27853, 24 h, 90% inhibitory concentration for bacterial growth, 37° C., resazurin fluorescence, read-out: IC90 (μg/ml) PAE 27853. Here is the method: as §1, §2, §3, §4

In brackets after ≈: the same amount, converted by molar mass.

Turning to `COc1nc2ccc(Br)cc2cc1C(c1ccccc1)C(O)(CCN(C)C)c1ccsc1` (stereo not drawn) [Compound 25], the IC90 came out at 11.5 µg/mL (≈ 22.5 µM) in experiment [1]; 11.5 µg/mL (≈ 22.5 µM) in experiment [2]; 4.1 µg/mL (≈ 8.02 µM) in experiment [3]; 11.5 µg/mL (≈ 22.5 µM) in experiment [4]; 12.8 µg/mL (≈ 25 µM) in experiment [6]. In addition, in experiment [5], the “IC90 (μg/ml) SPN 6305” value stood at 12.8 µg/mL (≈ 25 µM).

With `COc1nc2ccc(-c3ccccc3)cc2cc1C(c1ccccc1)C(O)(CCN(C)C)c1cccc2ccccc12` (stereo not drawn) [Compound 84], the IC90 in experiment [1] is 11 µg/mL (≈ 19.9 µM); in experiment [3], 11 µg/mL (≈ 19.9 µM); in experiment [4], 11 µg/mL (≈ 19.9 µM); in experiment [5], 7 µg/mL (≈ 12.7 µM).

Regarding `CCN(CC)CCC(O)(c1ccccc1)C(c1ccccc1)c1cc2cc(Br)ccc2nc1OC` (stereo not drawn) [Compound 18], the IC90 in experiment [1] and in experiment [2] was 13.3 µg/mL (≈ 24.9 µM) in each case. The “IC90 (μg/ml) SPN 6305” value in experiment [5] worked out at 0.7 µg/mL (≈ 1.31 µM).

Consider `COCCOc1nc2ccc(Br)cc2cc1C(c1ccccc1)C(O)(CCN(C)C)c1cccc(F)c1` (racemic) [Compound 165], for which, in experiment [3], the “IC90 (μg/ml) SPY 8668” value came out at 11.3 µg/mL (≈ 19.9 µM). Further, the “IC90 (μg/ml) SMU 33402” value in experiment [4] is 14.3 µg/mL (≈ 25.2 µM). For the same compound, the “IC90 (μg/ml) SPN 6305” value in experiment [5] is 14.3 µg/mL (≈ 25.2 µM).

In the case of `COc1nc2ccc(Br)cc2cc1C(c1ccccc1)C(O)(CCN1CCN(C)CC1)c1ccccc1` (racemic) [Compound 51], in experiment [7] (24 hours), the “IC90 (μg/ml) BSU 43639” value turned out to be 28.1 µg/mL (≈ 50.1 µM). Besides, the “IC90 (μg/ml) LMO 49594” value in experiment [1] (24 hours) amounted to 25.0 µg/mL (≈ 44.6 µM). Besides, the “IC90 (μg/ml) EFA 29212” value in experiment [2] (24 hours) was determined as 25.0 µg/mL (≈ 44.6 µM). Also, the “IC90 (μg/ml) SPN 6305” value in experiment [5] was found to be 5.6 µg/mL (≈ 9.99 µM).

On to `COc1nc2ccc(Br)cc2cc1C(c1ccc(Cl)cc1)C(O)(CCN(C)C)c1ccccc1` (stereo not drawn) [Compound 36], for which the IC90 in experiment [7] was determined as 24.1 µg/mL (≈ 44.6 µM); in experiment [1], 5.4 µg/mL (≈ 10 µM); in experiment [2], 4.8 µg/mL (≈ 8.89 µM); in experiment [3] it was 0.4 µg/mL (≈ 0.741 µM); in experiment [4] it was 3.8 µg/mL (≈ 7.04 µM); in experiment [8] it was 4.8 µg/mL (≈ 8.89 µM). Also, in experiment [6], the IC90 is 4.8 µg/mL (≈ 8.89 µM). Besides, the “IC90 (μg/ml) SPN 6305” value in experiment [5] was 2.7 µg/mL (≈ 5 µM).

`COc1nc2ccc(-c3cccnc3)cc2cc1C(c1ccccc1)C(O)(CCN(C)C)c1cc(F)cc(F)c1` (stereo not drawn) [Compound G]: the IC90 in experiment [7] came to 13.6 µg/mL (≈ 25.2 µM); in experiment [1], 10.8 µg/mL (≈ 20 µM); in experiment [2], 10.8 µg/mL (≈ 20 µM).

On to `COc1nc2ccc(Br)cc2cc1C(c1ccccc1)C(O)(CCN(C)C)c1cccs1` (stereo not drawn) [Compound 21], for which the IC90 in experiment [1] was 4.6 µg/mL (≈ 8.99 µM); in experiment [2], 11.5 µg/mL (≈ 22.5 µM); in experiment [4], 11.5 µg/mL (≈ 22.5 µM); in experiment [6], 12.8 µg/mL (≈ 25 µM). For the same compound, the “IC90 (μg/ml) SPN 6305” value in experiment [5] worked out at 12.8 µg/mL (≈ 25 µM).

In the case of `COc1nc2ccc(Br)cc2cc1C(c1ccccc1)C(O)(CCN(C)C)c1ccc2c(c1)OCO2` (stereo not drawn) [Compound 76], the IC90 in experiment [1] and in experiment [8] was 11 µg/mL (≈ 20 µM) in each case.

As for `COc1nc2ccc(Br)cc2cc1C(c1ccccc1)C(O)(CCN(C)C)c1ccccc1` (single isomer, unassigned) [E], the IC90 in experiment [7] was 12.7 µg/mL (≈ 25.1 µM); in experiment [1] it was 7.1 µg/mL (≈ 14 µM); in experiment [2], 11.3 µg/mL (≈ 22.4 µM); in experiment [8], 10.1 µg/mL (≈ 20 µM); in experiment [6], 12.7 µg/mL (≈ 25.1 µM). The “IC90 (μg/ml) SPY 8668” value in experiment [3] turned out to be 5.1 µg/mL (≈ 10.1 µM). Moreover, the “IC90 (μg/ml) SMU 33402” value in experiment [4] is 10.1 µg/mL (≈ 20 µM). Also, the “IC90 (μg/ml) SPN 6305” value in experiment [5] came out at 5.7 µg/mL (≈ 11.3 µM).

As to `COc1nc2ccc(Br)cc2cc1C(c1ccccc1)C(O)(CCN(C)C)c1ccc2ccccc2c1` (stereo not drawn) [Compound 46], the IC90 in experiment [1] came out at 2.8 µg/mL (≈ 5.04 µM); in experiment [2], 5 µg/mL (≈ 9 µM); in experiment [3], 0.6 µg/mL (≈ 1.08 µM); in experiment [4], 5.6 µg/mL (≈ 10.1 µM); in experiment [8], 5 µg/mL (≈ 9 µM); in experiment [5], 2.8 µg/mL (≈ 5.04 µM). Further, the IC90 in experiment [6] amounted to 5.6 µg/mL (≈ 10.1 µM).

In the case of `COc1nc2ccc(-c3ccc(CO)o3)cc2cc1C(c1ccccc1)C(O)(CCN(C)C)c1cccc2ccccc12` (stereo not drawn) [Compound 212], the IC90 in experiment [7] was 11.4 µg/mL (≈ 19.9 µM).
